From patent US11753407B2, “Compounds for treating spinal muscular atrophy” (PTC Therapeutics, Inc., priority 2012, dated 2023)

Columns and labels:
[1] = system: SMN2 minigene mRNA (SMN2-A minigene) in HEK293H cells; experiment: SMN2 minigene mRNA splicing RT-qPCR assay in cultured cells; type: cell-based, human; details: Homo sapiens, HEK293-H; concentration increasing full length SMN2 mRNA 1.5-fold relative to vehicle-treated cells; HEK293H cells with SMN2-A minigene, 24 hours, 7-point concentration data; read-out: EC1.5x for production of full length SMN2 mRNA
Summary of the method: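 EC1.5× = concentration raising full-length SMN2 minigene mRNA 1.5-fold over vehicle, from 7-point curves in duplicate. Stably transfected HEK293H cells exposed 24 h at 37 °C; lysates assayed by multiplex RT-qPCR, minigene FL signal normalized to GAPDH via modified ΔΔCt.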

[2] = system: Smn protein in SMA patient fibroblast cells (GM03813); experiment: Smn protein assay in cultured cells (SMN HTRF); type: cell-based, human; details: SMA patient fibroblast cells, 48 hours; for EC1.5x for Smn protein expression: 7-point concentration curve, SMN HTRF, concentration producing 1.5 times Smn protein vs DMSO vehicle control; for maximum fold (Fold) increase of Smn protein: 7-point concentration data, fold relative to vehicle control
Summary of the method: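 Smn protein quantified by HTRF with anti-SMN d2/kryptate pair, 665/620 nm ratio blank-corrected, in RIPA lysates of GM03813 fibroblasts after 48 h compound exposure (7 concentrations, 3.16-fold steps, triplicates). Values: concentration producing 1.5× vehicle Smn level, and maximal fold increase.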

Which melting point does the source give for CCN1CCN(c2ccc3nc(-c4cc5c(C6CC6)nc(C)cn5n4)cc(=O)n3c2)CC1 [Compound 685, 2-(4-cyclopropyl-6-methylpyrazolo[1,5-a]pyrazin-2-yl)-7-(4-ethylpiperazin-1-yl)-4H-pyrido[1,2-a]pyrimidin-4-one] here?
Its melting point is 236 to 238 °C.

And the EC (1.5-fold increase) [1]?
Its EC (1.5-fold increase) is 0.1 to 0.3 µM.

And the “EC1.5x for Smn protein expression” value [2]?
The value was “** (an EC1.5× between >1 μM and ≤3 μM is indicated by two stars (**))”.

And the “maximum fold (Fold) increase of Smn protein” value (from here on “maximum fold (Fold) increase”) [2]?
Its value is “**** (a fold increase between >1.5 and ≤1.65 is indicated by four stars (****))”.

For Cc1cn2nc(-c3cc(=O)n4cc(N5CCN(CCO)CC5)ccc4n3)cc2c(C2CC2)n1 [Compound 686, 2-(4-cyclopropyl-6-methylpyrazolo[1,5-a]pyrazin-2-yl)-7-[4-(2-hydroxyethyl)piperazin-1-yl]-4H-pyrido[1,2-a]pyrimidin-4-one], which melting point is on record?
Its melting point is 239 to 241 °C.

And the EC (1.5-fold increase) [1]?
Its EC (1.5-fold increase) is 0.3 to 1 µM.

What about the “EC1.5x for Smn protein expression” value [2] of the same molecule?
Its value is “** (an EC1.5× between >1 μM and ≤3 μM is indicated by two stars (**))”.

What about the “maximum fold (Fold) increase” value [2] of the same molecule?
The value was “***** (a fold increase >1.65 is indicated by five stars (*****))”.

What does the source list for CCCN1CCC(c2ccc3nc(-c4cc5c(C)nc(C)cn5n4)cc(=O)n3c2)CC1 [Compound 687, 2-(4,6-dimethylpyrazolo[1,5-a]pyrazin-2-yl)-7-(1-propylpiperidin-4-yl)-4H-pyrido[1,2-a]pyrimidin-4-one]?
melting point: 185 to 187 °C; EC (1.5-fold increase) [1]: < 0.1 µM; EC1.5x for Smn protein expression [2]: **** (an EC1.5x≤0.3 μM is indicated by four stars (****)); maximum fold (Fold) increase of Smn protein [2]: **** (a fold increase between >1.5 and ≤1.65 is indicated by four stars (****))

Which results are given for Cc1nc2ccc(-c3cc(=O)n4cc(N5CCN(C)CC5)ccc4n3)cc2[nH]1 [Compound 689, 2-(2-methyl-1H-benzimidazol-6-yl)-7-(4-methylpiperazin-1-yl)-4H-pyrido[1,2-a]pyrimidin-4-one]?
melting point: 292 to 294 °C; EC (1.5-fold increase) [1]: 0.1 to 0.3 µM; EC1.5x for Smn protein expression [2]: *** (an EC1.5× between >0.3 μM and ≤1 μM is indicated by three stars (***)); maximum fold (Fold) increase of Smn protein [2]: **** (a fold increase between >1.5 and ≤1.65 is indicated by four stars (****))

Which melting point does the source give for CCN1CCN(c2ccc3nc(-c4ccc5nc(C)[nH]c5c4)cc(=O)n3c2)CC1 [Compound 690, 7-(4-ethylpiperazin-1-yl)-2-(2-methyl-1H-benzimidazol-6-yl)-4H-pyrido[1,2-a]pyrimidin-4-one] here?
The melting point was 283 to 285 °C.

And the EC (1.5-fold increase) [1]?
Its EC (1.5-fold increase) is < 0.1 µM.

And the “EC1.5x for Smn protein expression” value [2]?
Its value is “*** (an EC1.5× between >0.3 μM and ≤1 μM is indicated by three stars (***))”.

What about the “maximum fold (Fold) increase” value [2] of the same molecule?
The value was “**** (a fold increase between >1.5 and ≤1.65 is indicated by four stars (****))”.

For Cc1cn2cc(-c3cc(=O)n4nc(C5CCNCC5)ccc4n3)cc(C)c2n1 [Compound 691, 2-(2,8-dimethylimidazo[1,2-a]pyridin-6-yl)-7-(piperidin-4-yl)-4H-pyrimido[1,2-b]pyridazin-4-one], which melting point is on record?
Its melting point is 215 to 217 °C.

What about the EC (1.5-fold increase) [1] of the same molecule?
The EC (1.5-fold increase) was < 0.1 µM.

And the “EC1.5x for Smn protein expression” value [2]?
Its value is “**** (an EC1.5x≤0.3 μM is indicated by four stars (****))”.

And the “maximum fold (Fold) increase” value [2]?
Its value is “***** (a fold increase >1.65 is indicated by five stars (*****))”.

Which melting point does the source give for Cc1cn2cc(-c3cc(=O)n4nc(C5CCNCC5)ccc4n3)ccc2n1 [Compound 692, 2-(2-methylimidazo[1,2-a]pyridin-6-yl)-7-(piperidin-4-yl)-4H-pyrimido[1,2-b]pyridazin-4-one] here?
The melting point was 249 to 251 °C.

And the EC (1.5-fold increase) [1]?
Its EC (1.5-fold increase) is 0.1 to 0.3 µM.

What about the “EC1.5x for Smn protein expression” value [2] of the same molecule?
Its value is “*** (an EC1.5× between >0.3 μM and ≤1 μM is indicated by three stars (***))”.

And the “maximum fold (Fold) increase” value [2]?
The value was “***** (a fold increase >1.65 is indicated by five stars (*****))”.

Which melting point does the source give for CCc1nc(C)cn2nc(-c3cc(=O)n4cc(C5CCN(C6COC(C)(C)OC6)CC5)ccc4n3)cc12 [Compound 693, 7-[1-(2,2-dimethyl-1,3-dioxan-5-yl)piperidin-4-yl]-2-(4-ethyl-6-methylpyrazolo[1,5-a]pyrazin-2-yl)-4H-pyrido[1,2-a]pyrimidin-4-one] here?
The melting point was 236 to 238 °C.

And the EC (1.5-fold increase) [1]?
Its EC (1.5-fold increase) is 1 to 3 µM.

And the “EC1.5x for Smn protein expression” value [2]?
Its value is “** (an EC1.5× between >1 μM and ≤3 μM is indicated by two stars (**))”.

And the “maximum fold (Fold) increase” value [2]?
The value was “**** (a fold increase between >1.5 and ≤1.65 is indicated by four stars (****))”.

With Cc1cn2cc(-c3cc(=O)n4cc(N5C[C@@H](C)N[C@@H](C)C5)ccc4n3)cc2c(C)n1 [Compound 695, 7-[(3R,5S)-3,5-dimethylpiperazin-1-yl]-2-(1,3-dimethylpyrrolo[1,2-a]pyrazin-7-yl)-4H-pyrido[1,2-a]pyrimidin-4-one] as the molecule, how does the melting point read?
Its melting point is 254 to 256 °C.

And the EC (1.5-fold increase) [1]?
Its EC (1.5-fold increase) is < 0.1 µM.

What about the “EC1.5x for Smn protein expression” value [2] of the same molecule?
Its value is “**** (an EC1.5x≤0.3 μM is indicated by four stars (****))”.

What about the “maximum fold (Fold) increase” value [2] of the same molecule?
Its value is “***** (a fold increase >1.65 is indicated by five stars (*****))”.

What does the source list for CCc1cc(-c2cc(=O)n3cc(C4CCNCC4)ccc3n2)cn2cc(C)nc12 [Compound 696, 2-(8-ethyl-2-methylimidazo[1,2-a]pyridin-6-yl)-7-(piperidin-4-yl)-4H-pyrido[1,2-a]pyrimidin-4-one]?
melting point: 221 to 224 °C; EC (1.5-fold increase) [1]: < 0.1 µM; EC1.5x for Smn protein expression [2]: **** (an EC1.5x≤0.3 μM is indicated by four stars (****)); maximum fold (Fold) increase of Smn protein [2]: ***** (a fold increase >1.65 is indicated by five stars (*****))

With CCc1cc(-c2cc(=O)n3cc(C4CCN(C)CC4)ccc3n2)cn2cc(C)nc12 [Compound 697, 2-(8-ethyl-2-methylimidazo[1,2-a]pyridin-6-yl)-7-(1-methylpiperidin-4-yl)-4H-pyrido[1,2-a]pyrimidin-4-one] as the molecule, how does the melting point read?
Its melting point is 214 to 218 °C.

And the EC (1.5-fold increase) [1]?
The EC (1.5-fold increase) was < 0.1 µM.

And the “EC1.5x for Smn protein expression” value [2]?
Its value is “**** (an EC1.5x≤0.3 μM is indicated by four stars (****))”.

What about the “maximum fold (Fold) increase” value [2] of the same molecule?
The value was “***** (a fold increase >1.65 is indicated by five stars (*****))”.

With CCc1cc(-c2cc(=O)n3cc(C4CCN(CC)CC4)ccc3n2)cn2cc(C)nc12 [Compound 698, 2-(8-ethyl-2-methylimidazo[1,2-a]pyridin-6-yl)-7-(1-ethylpiperidin-4-yl)-4H-pyrido[1,2-a]pyrimidin-4-one] as the molecule, how does the melting point read?
Its melting point is 196 to 200 °C.

What about the EC (1.5-fold increase) [1] of the same molecule?
The EC (1.5-fold increase) was < 0.1 µM.

And the “EC1.5x for Smn protein expression” value [2]?
Its value is “**** (an EC1.5x≤0.3 μM is indicated by four stars (****))”.

What about the “maximum fold (Fold) increase” value [2] of the same molecule?
The value was “***** (a fold increase >1.65 is indicated by five stars (*****))”.

With CCc1cc(-c2cc(=O)n3cc(C4CCN(CCO)CC4)ccc3n2)cn2cc(C)nc12 [Compound 699, 2-(8-ethyl-2-methylimidazo[1,2-a]pyridin-6-yl)-7-[1-(2-hydroxyethyl)piperidin-4-yl]-4H-pyrido[1,2-a]pyrimidin-4-one] as the molecule, how does the melting point read?
Its melting point is 244 to 247 °C.

What about the EC (1.5-fold increase) [1] of the same molecule?
The EC (1.5-fold increase) was < 0.1 µM.

What about the “EC1.5x for Smn protein expression” value [2] of the same molecule?
Its value is “**** (an EC1.5x≤0.3 μM is indicated by four stars (****))”.

What about the “maximum fold (Fold) increase” value [2] of the same molecule?
The value was “***** (a fold increase >1.65 is indicated by five stars (*****))”.

With CCc1cc(-c2cc(=O)n3cc(N4CCN(C)[C@H](C)C4)ccc3n2)cn2cc(C)nc12 [Compound 700, 7-[(3R)-3,4-dimethylpiperazin-1-yl]-2-(8-ethyl-2-methylimidazo[1,2-a]pyridin-6-yl)-4H-pyrido[1,2-a]pyrimidin-4-one] as the molecule, how does the melting point read?
Its melting point is 217 to 220 °C.

And the EC (1.5-fold increase) [1]?
The EC (1.5-fold increase) was < 0.1 µM.

What about the “EC1.5x for Smn protein expression” value [2] of the same molecule?
Its value is “**** (an EC1.5x≤0.3 μM is indicated by four stars (****))”.

What about the “maximum fold (Fold) increase” value [2] of the same molecule?
The value was “***** (a fold increase >1.65 is indicated by five stars (*****))”.

Which melting point does the source give for CCc1cc(-c2cc(=O)n3cc(N4CCN(CC)[C@H](C)C4)ccc3n2)cn2cc(C)nc12 [Compound 701, 2-(8-ethyl-2-methylimidazo[1,2-a]pyridin-6-yl)-7-[(3R)-4-ethyl-3-methylpiperazin-1-yl]-4H-pyrido[1,2-a]pyrimidin-4-one] here?
Its melting point is 179 to 182 °C.

And the EC (1.5-fold increase) [1]?
Its EC (1.5-fold increase) is < 0.1 µM.

What about the “EC1.5x for Smn protein expression” value [2] of the same molecule?
Its value is “**** (an EC1.5x≤0.3 μM is indicated by four stars (****))”.

What about the “maximum fold (Fold) increase” value [2] of the same molecule?
The value was “***** (a fold increase >1.65 is indicated by five stars (*****))”.

With Cc1cn2nc(-c3cc(=O)n4cc(C5CCN(CCO)CC5)cc(C)c4n3)cc2c(C)n1 [Compound 703, 2-(4,6-dimethylpyrazolo[1,5-a]pyrazin-2-yl)-7-[1-(2-hydroxyethyl)piperidin-4-yl]-9-methyl-4H-pyrido[1,2-a]pyrimidin-4-one] as the molecule, how does the melting point read?
The melting point was 224 to 233 °C.

What about the EC (1.5-fold increase) [1] of the same molecule?
The EC (1.5-fold increase) was < 0.1 µM.

And the “EC1.5x for Smn protein expression” value [2]?
The value was “**** (an EC1.5x≤0.3 μM is indicated by four stars (****))”.

And the “maximum fold (Fold) increase” value [2]?
The value was “***** (a fold increase >1.65 is indicated by five stars (*****))”.

Which melting point does the source give for Cc1cn2nc(-c3cc(=O)n4cc(C5CCN(C6CCC6)CC5)cc(C)c4n3)cc2c(C)n1 [Compound 704, 7-(1-cyclobutylpiperidin-4-yl)-2-(4,6-dimethylpyrazolo[1,5-a]pyrazin-2-yl)-9-methyl-4H-pyrido[1,2-a]pyrimidin-4-one] here?
Its melting point is 228 to 237 °C.

What about the EC (1.5-fold increase) [1] of the same molecule?
The EC (1.5-fold increase) was 0.1 to 0.3 µM.

What about the “EC1.5x for Smn protein expression” value [2] of the same molecule?
The value was “**** (an EC1.5x≤0.3 μM is indicated by four stars (****))”.

And the “maximum fold (Fold) increase” value [2]?
The value was “**** (a fold increase between >1.5 and ≤1.65 is indicated by four stars (****))”.
